Measured values reported in ChEMBL document CHEMBL1201862, “PubChem BioAssay data set” (2004).
Several values for one entry are separate records, joined by “and”; a condition that tells them apart may be missing. Equal values may be shown once.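 In this assay, cells in 96-well plates receive the compound at five concentrations for 48 hours. Endpoints are linearly interpolated between the surrounding concentrations. GI50: concentration for 50% inhibition of growth.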 Activity calls are given as the source filed them. Cut-off read from the data, not from the text of the source: active = GI50 up to about 1.1 µM and inactive = higher.

Assays:
Assay in all cases: NCI tumour cell line growth inhibition, 48 h
COLO 205 = system: COLO 205
K562 = system: K562
DU-145 = system: DU-145
HOP-92 = system: HOP-92
HCC 2998 = system: HCC 2998
SNB-75 = system: SNB-75
NCI/ADR-RES = system: NCI/ADR-RES
MDA-MB-231 = system: MDA-MB-231
SF-295 = system: SF-295
RXF 393 = system: RXF 393
OVCAR-5 = system: OVCAR-5
UACC-62 = system: UACC-62
SN12C = system: SN12C
786-0 = system: 786-0
HT-29 = system: HT-29
MOLT-4 = system: MOLT-4
LOX IMVI = system: LOX IMVI
TK-10 = system: TK-10
Malme-3M = system: Malme-3M
Hs-578T = system: Hs-578T

Measured: GI50

Cc1c/c(=N/NC(=O)c2ccncc2)n2nc(N)sc2n1
inactive: COLO 205 > 100 µM | K562 > 100 µM | DU-145 > 100 µM | HOP-92 > 100 µM | HCC 2998 > 100 µM | SNB-75 40.2 µM | NCI/ADR-RES > 100 µM | MDA-MB-231 > 100 µM | SF-295 > 100 µM | RXF 393 > 100 µM | OVCAR-5 > 100 µM | UACC-62 > 100 µM | SN12C > 100 µM | 786-0 > 100 µM | HT-29 > 100 µM | MOLT-4 > 100 µM | LOX IMVI > 100 µM

N=C(N)NCCCC(NC(=O)c1c2ccccc2nc2ccccc12)C(=O)O (stereo not given)
inactive: COLO 205 > 100 µM | K562 > 100 µM | DU-145 > 100 µM | HOP-92 > 100 µM | HCC 2998 > 100 µM | SNB-75 > 100 µM | NCI/ADR-RES > 100 µM | MDA-MB-231 > 100 µM | TK-10 > 100 µM | SF-295 > 100 µM | OVCAR-5 > 100 µM | UACC-62 > 100 µM | SN12C > 100 µM | 786-0 > 100 µM | HT-29 > 100 µM | MOLT-4 > 100 µM | LOX IMVI > 100 µM

O=C(NCCO)Nc1c(C(F)(F)F)cc(-c2ccccc2)[nH]c1=O
inactive: COLO 205 > 100 µM | K562 > 100 µM | DU-145 > 100 µM | HOP-92 > 100 µM | HCC 2998 > 100 µM | NCI/ADR-RES > 100 µM | MDA-MB-231 > 100 µM | TK-10 > 100 µM | SF-295 > 100 µM | RXF 393 > 100 µM | OVCAR-5 > 100 µM | UACC-62 > 100 µM | SN12C > 100 µM | 786-0 > 100 µM | HT-29 > 100 µM | MOLT-4 > 100 µM | LOX IMVI > 100 µM

CNC1=Nc2ccccc2C(=S)N2CSC[C@@H]12
inactive: COLO 205 > 100 µM | K562 > 100 µM | DU-145 > 100 µM | HOP-92 50.9 µM | HCC 2998 > 100 µM | NCI/ADR-RES > 100 µM | MDA-MB-231 > 100 µM | TK-10 > 100 µM | SF-295 > 100 µM | RXF 393 > 100 µM | OVCAR-5 > 100 µM | UACC-62 > 100 µM | SN12C > 100 µM | 786-0 > 100 µM | Malme-3M > 100 µM | HT-29 > 100 µM | MOLT-4 > 100 µM

Cc1ccnc(NC(=S)Nc2cccc(Cl)c2)c1
inactive: COLO 205 > 100 µM | K562 > 100 µM | DU-145 > 100 µM | SNB-75 23.1 µM | NCI/ADR-RES > 100 µM | TK-10 > 100 µM | SF-295 > 100 µM | RXF 393 > 100 µM | OVCAR-5 > 100 µM | UACC-62 > 100 µM | SN12C > 100 µM | Hs-578T 74.1 µM | 786-0 > 100 µM | HT-29 > 100 µM | MOLT-4 > 100 µM | LOX IMVI > 100 µM

COC(=O)[C@@H]1[C@H](O)[C@H](C)[C@H](O)[C@@](C)(O)/C=C\C=C(\C)C(=O)Nc2c(C)c(OC(C)=O)c3c(c2O)C(=O)C(C)=C2OCOC(=C23)/C(C)=C/[C@@](C)(O)[C@H](O)[C@@H](C)[C@H]1OC(C)=O
inactive: COLO 205 72.9 µM and 14.6 µM | K562 23.4 µM | DU-145 > 66.8 µM | HOP-92 > 66.8 µM | HCC 2998 21.8 µM | SNB-75 > 66.8 µM | TK-10 > 66.8 µM | SF-295 88.5 µM | RXF 393 62.7 µM | OVCAR-5 > 66.8 µM | UACC-62 41.3 µM | SN12C 43.6 µM | 786-0 > 100 µM and 69.5 µM | Malme-3M 31.3 µM | HT-29 38.5 µM and 56.6 µM | MOLT-4 27.7 µM and 61.7 µM | LOX IMVI 26.8 µM

O=C(Nc1ccccc1F)c1cc2ccc(O)cc2o/c1=N\c1cccc(F)c1
inactive: COLO 205 29.7 µM | K562 4.42 µM | DU-145 15 µM | HCC 2998 15.3 µM | NCI/ADR-RES 12.8 µM | SF-295 4.3 µM | OVCAR-5 23.7 µM | UACC-62 11.8 µM | Hs-578T 25.6 µM | 786-0 15 µM | Malme-3M 21.6 µM | HT-29 37.5 µM | MOLT-4 4.41 µM | LOX IMVI 9.89 µM

CCN(CC)CCNc1nc2ccc([N+](=O)[O-])cc2[n+]([O-])n1
inactive: COLO 205 2.84 µM | K562 13.2 µM | DU-145 34.2 µM | HOP-92 32 µM | HCC 2998 11.4 µM | SNB-75 29.3 µM | NCI/ADR-RES 24.3 µM | MDA-MB-231 15.5 µM | TK-10 43.1 µM | SF-295 32.1 µM | RXF 393 46.7 µM | OVCAR-5 16 µM | UACC-62 16.6 µM | SN12C 19 µM | 786-0 20.1 µM | Malme-3M 1.75 µM | HT-29 7.91 µM | MOLT-4 18.9 µM

CC(NC(=O)c1ccccc1)C(=O)N(Cc1ccccc1)Cc1ccccc1 (stereo not given)
inactive: COLO 205 19.2 µM | K562 15.3 µM | HOP-92 23.6 µM | HCC 2998 35.6 µM | SNB-75 > 100 µM | TK-10 60.1 µM | SF-295 27.4 µM | RXF 393 26.5 µM | OVCAR-5 33 µM | UACC-62 16.4 µM | SN12C 37.4 µM | 786-0 37.6 µM | Malme-3M 24.5 µM | HT-29 37.1 µM | MOLT-4 14.1 µM | LOX IMVI 22.1 µM

COc1ccc(C2=Nn3c(nnc3-c3ccccc3)S/C2=C\c2ccc(-c3ccc([N+](=O)[O-])cc3)o2)cc1
inactive: COLO 205 25.8 µM | K562 13.3 µM | HOP-92 54.8 µM | HCC 2998 28 µM | NCI/ADR-RES 25.2 µM | SF-295 26.5 µM | OVCAR-5 47.6 µM | UACC-62 48.3 µM | SN12C 18.2 µM | Hs-578T 33.7 µM | 786-0 24.9 µM | Malme-3M 34.8 µM | HT-29 26.4 µM | MOLT-4 11.3 µM | LOX IMVI 25 µM

CCOC(=N)CC(=O)Nc1ccccc1
inactive: COLO 205 > 46.5 µM | K562 22.1 µM | HOP-92 > 10 µM | HCC 2998 > 31.6 µM | SNB-75 > 46.5 µM | TK-10 > 46.5 µM | SF-295 > 100 µM | RXF 393 > 46.5 µM | OVCAR-5 > 100 µM | UACC-62 > 100 µM | SN12C > 46.5 µM | 786-0 > 46.5 µM | Malme-3M > 46.5 µM | HT-29 > 46.5 µM | MOLT-4 > 31.6 µM | LOX IMVI 47.5 µM

O=c1c2cc(-c3ccccc3)cnc2sn1-c1ccc(Br)cc1
inactive: COLO 205 > 100 µM | K562 > 100 µM | DU-145 > 100 µM | HOP-92 > 100 µM | HCC 2998 > 100 µM | SNB-75 > 100 µM | NCI/ADR-RES > 100 µM | MDA-MB-231 > 100 µM | SF-295 > 100 µM | RXF 393 > 100 µM | OVCAR-5 > 100 µM | UACC-62 > 100 µM | SN12C > 100 µM | 786-0 > 100 µM | Malme-3M 51.8 µM | HT-29 > 100 µM | MOLT-4 > 100 µM

CC(=O)/C(=C/n1ccc(=O)[nH]c1=S)C(=O)Nc1ccccc1C
inactive: COLO 205 > 100 µM | DU-145 > 100 µM | HOP-92 > 100 µM | HCC 2998 > 100 µM | SNB-75 > 100 µM | NCI/ADR-RES > 100 µM | MDA-MB-231 > 100 µM | TK-10 > 100 µM | SF-295 > 100 µM | RXF 393 > 100 µM | OVCAR-5 > 100 µM | UACC-62 > 100 µM | SN12C > 100 µM | 786-0 > 100 µM | HT-29 > 100 µM | LOX IMVI > 100 µM

CN(C)c1ccc(C2C(Cl)C(=O)N2NC(=O)c2c(Cl)c(Cl)c(Cl)c(Cl)c2-c2nc3ccccc3[nH]2)cc1 (stereo not given)
inactive: COLO 205 7.67 µM | K562 4.44 µM | DU-145 6.92 µM | HOP-92 5.4 µM | HCC 2998 16.3 µM | SNB-75 15.6 µM | NCI/ADR-RES 21.6 µM | SF-295 42.6 µM | RXF 393 2.48 µM | OVCAR-5 31.3 µM | UACC-62 12.7 µM | SN12C 11.1 µM | Hs-578T 33.3 µM | 786-0 2.56 µM | Malme-3M 16.3 µM | HT-29 22.3 µM | MOLT-4 2.68 µM | LOX IMVI 7.4 µM

CN(C)CCNc1nc(-c2cccs2)cc(-c2cccs2)n1
inactive: COLO 205 12.1 µM | K562 17.7 µM | HOP-92 1.58 µM | HCC 2998 12.4 µM | SNB-75 23.8 µM | TK-10 14.9 µM | SF-295 14.3 µM | RXF 393 14.6 µM | OVCAR-5 9.18 µM | UACC-62 19.1 µM | SN12C 12.9 µM | 786-0 15.2 µM | Malme-3M 15.5 µM | HT-29 7.5 µM | MOLT-4 3 µM | LOX IMVI 10.5 µM

CCCCN(CCCC)C1(c2cc3ccccc3s2)CCCCC1.[O-][Cl+3]([O-])([O-])O
inactive: COLO 205 14.9 µM | K562 16.7 µM | DU-145 16.3 µM | HOP-92 12.5 µM | HCC 2998 14.1 µM | SNB-75 16.8 µM | NCI/ADR-RES 17.7 µM | MDA-MB-231 15.9 µM | TK-10 17.3 µM | SF-295 13.2 µM | RXF 393 16.6 µM | OVCAR-5 18.4 µM | UACC-62 15.6 µM | SN12C 21.4 µM | 786-0 13.7 µM | HT-29 13.1 µM | MOLT-4 13.6 µM | LOX IMVI 13.9 µM
